This note sets out measurements from ChEMBL document CHEMBL5104094, “Chemistry, biosynthesis and biological activity of terpenoids and meroterpenoids in bacteria and fungi isolated from different marine habitats” (Eur J Med Chem, 2021).

≈ marks a conversion by molar mass, not a printed value. Structures can show the parent of a compound that is named as a salt.

Data set [1] is described as follows: Antiproliferative activity against human IMC cells assessed as inhibition of cell proliferation incubated for 48 hrs by Coulter counter method. It is filed as functional, cell-based.
The test system of data set [2] is L1210. Briefly: Antiproliferative activity against mouse L1210 cells assessed as inhibition of cell proliferation incubated for 48 hrs by Coulter counter method. It counts as functional, cell-based. The note with it: L1210, 48 h.
The test system of data set [3] is Candida albicans. Nature of the data set: Antifungal activity against Candida albicans assessed as fungal growth inhibition by microbroth dilution method. It counts as functional.
Data set [4] deals with HCT-116. Nature of the data set: Cytotoxicity against human HCT-116 cells assessed as cell growth inhibition by MTT assay. It counts as functional, cell-based. In general terms: Tetrazolium assays rely on reduction of a dye to a coloured formazan, in cell work by metabolically active cells.
In data set [5] the test system is HCC1395. Briefly: Cytotoxicity against human HCC1395 cells assessed as cell growth inhibition incubated for 96 hrs by Cell Titer Glo assay. It is filed as functional, cell-based. The note with it: HCC1395, 96 h. Background: ATP-based viability assays read luminescence as a measure of living cells.
Data set [6] deals with NCI-H1395. Briefly: Cytotoxicity against human NCI-H1395 cells assessed as cell growth inhibition incubated for 96 hrs by Cell Titer Glo assay. It is filed as functional, cell-based. The note with it: NCI-H1395, 96 h.
For data set [7], the system named is NSCLC. Nature of the data set: Cytotoxicity against human NSCLC cells assessed as cell growth inhibition incubated for 96 hrs by Cell Titer Glo assay. It is filed as functional, cell-based.
In data set [8] the test system is A549. Briefly: Cytotoxicity against human A549 cells assessed as cell growth inhibition incubated for 72 hrs by SRB assay. It is filed as functional, cell-based. The conditions noted are these: A549, 72 h. For orientation: The SRB assay estimates cell density from bound dye.
The test system of data set [9] is MCF7. Briefly: Cytotoxicity against human MCF7 cells assessed as cell growth inhibition incubated for 72 hrs by SRB assay. It counts as functional, cell-based. The note with it: MCF7, 72 h.
In data set [10] the test system is SF-268. Nature of the data set: Cytotoxicity against human SF-268 cells assessed as cell growth inhibition incubated for 72 hrs by SRB assay. The conditions noted are these: SF-268, 72 h. It counts as functional, cell-based.
Data set [11] relates to HepG2. Nature of the data set: Cytotoxicity against human HepG2 cells assessed as cell growth inhibition incubated for 72 hrs by SRB assay. It is filed as functional, cell-based. The conditions noted are these: HepG2, 72 h.
For data set [12], the target named is Tyrosine-protein phosphatase non-receptor type 1 (Homo sapiens, UniProt P18031). Nature of the data set: Inhibition of recombinant human PTP1B expressed in Escherichia coli using p-nitrophenyl phosphate as substrate preincubated for 15 mins followed by substrate addition measured after 60 mins by absorbance based assay.
Chain of Tyrosine-protein phosphatase non-receptor type 1 (P18031 whole entry): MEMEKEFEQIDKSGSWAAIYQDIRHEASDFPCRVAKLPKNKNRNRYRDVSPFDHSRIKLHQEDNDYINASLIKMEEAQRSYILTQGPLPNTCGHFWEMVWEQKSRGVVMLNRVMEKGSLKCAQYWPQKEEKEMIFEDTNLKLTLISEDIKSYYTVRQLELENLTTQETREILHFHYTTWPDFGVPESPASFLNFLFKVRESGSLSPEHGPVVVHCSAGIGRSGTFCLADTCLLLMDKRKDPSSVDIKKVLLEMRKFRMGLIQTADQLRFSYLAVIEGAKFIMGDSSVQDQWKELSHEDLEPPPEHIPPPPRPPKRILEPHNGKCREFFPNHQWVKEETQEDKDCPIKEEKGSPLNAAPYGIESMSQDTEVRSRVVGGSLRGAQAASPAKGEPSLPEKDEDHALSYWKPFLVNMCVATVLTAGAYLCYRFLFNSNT
Data set [13] addresses Tyrosine-protein phosphatase non-receptor type 2 (Homo sapiens, UniProt P17706). Briefly: Inhibition of recombinant human TCPTP expressed in Escherichia coli using p-nitrophenyl phosphate as substrate preincubated for 15 mins followed by substrate addition measured after 60 mins by absorbance based assay.
In data set [14] the test system is MDA-MB-435. Nature of the data set: Antiproliferative activity against human MDA-MB-435 cells assessed as inhibition of cell proliferation incubated for 24 hrs by MTT assay. It is filed as functional, cell-based. The conditions noted are these: MDA-MB-435, 24 h.
In data set [15] the target is Androgen receptor (Homo sapiens, UniProt P10275). Briefly: Displacement of [3H]-DHT from recombinant androgen receptor (unknown origin) incubated for 3 hrs by liquid scintillation counter method.
Chain of Androgen receptor (P10275 whole entry): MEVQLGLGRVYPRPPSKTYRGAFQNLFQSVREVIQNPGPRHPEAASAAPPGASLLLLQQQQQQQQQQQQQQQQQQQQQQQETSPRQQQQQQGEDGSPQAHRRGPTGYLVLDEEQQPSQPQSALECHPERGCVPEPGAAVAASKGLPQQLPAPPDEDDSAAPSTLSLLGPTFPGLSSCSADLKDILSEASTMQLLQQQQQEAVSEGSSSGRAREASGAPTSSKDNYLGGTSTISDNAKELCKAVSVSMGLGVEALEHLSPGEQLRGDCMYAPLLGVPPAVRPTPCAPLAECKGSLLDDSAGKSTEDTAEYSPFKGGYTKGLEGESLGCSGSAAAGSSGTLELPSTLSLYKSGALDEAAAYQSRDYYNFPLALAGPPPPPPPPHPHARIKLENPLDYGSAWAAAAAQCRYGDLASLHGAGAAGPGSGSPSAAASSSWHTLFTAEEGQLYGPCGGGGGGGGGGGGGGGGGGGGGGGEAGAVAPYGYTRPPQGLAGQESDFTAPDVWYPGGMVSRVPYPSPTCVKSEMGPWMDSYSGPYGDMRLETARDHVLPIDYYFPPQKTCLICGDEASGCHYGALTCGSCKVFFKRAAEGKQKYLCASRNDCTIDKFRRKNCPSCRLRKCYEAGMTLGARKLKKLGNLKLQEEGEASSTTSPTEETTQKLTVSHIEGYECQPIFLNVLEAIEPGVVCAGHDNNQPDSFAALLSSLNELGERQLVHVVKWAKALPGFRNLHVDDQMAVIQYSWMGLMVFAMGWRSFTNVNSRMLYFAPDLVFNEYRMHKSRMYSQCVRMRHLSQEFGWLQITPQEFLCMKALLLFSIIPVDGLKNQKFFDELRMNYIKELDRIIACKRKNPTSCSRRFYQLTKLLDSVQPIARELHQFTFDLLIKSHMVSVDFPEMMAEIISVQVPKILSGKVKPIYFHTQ
The nature of data set [16]: Cytotoxicity against human H7402 cells assessed as cell growth inhibition incubated for 24 hrs by MTT assay. The note with it: H7402, 24 h. It is filed as functional, cell-based.
Data set [17] concerns HCT-116. Briefly: Cytotoxicity against human HCT-116 cells assessed as lethal dose. It is filed as functional. The conditions noted are these: read-out: LD50 (the source's name).
Data set [18] concerns Panel NCI-60 (60 carcinoma cell lines). Nature of the data set: Cytotoxicity against human Panel NCI-60 (60 carcinoma cell lines) cells assessed as cell growth inhibition. It counts as functional, cell-based.
Data set [19] is described as follows: Cytotoxicity against human BJ cells assessed as cell growth inhibition incubated for 72 hrs by Cell Titer Glo assay relative to control. It is filed as toxicity, cell-based.
The subject of data set [20] is HCT-116. Briefly: Cytotoxicity against human HCT-116 cells assessed as cell growth inhibition incubated for 72 hrs by Cell Titer Glo assay. It is filed as functional, cell-based. The conditions noted are these: HCT-116, 72 h.
Data set [21] deals with Macrophage. Nature of the data set: Cytotoxicity against mouse spleen macrophage assessed as cell growth inhibition. It counts as functional, cell-based.
Data set [22] has as its system T-cell. Briefly: Cytotoxicity against mouse spleen T-cells assessed as cell growth inhibition. It is filed as functional, cell-based.
Data set [23] concerns MCF7. Nature of the data set: Antitumor activity against Adriamycin-resistant human MCF7 cells xenografted in athymic nude BALB/c mouse assessed as tumor growth inhibition at 5 mg/kg, iv measured every 4 days for 40 days by caliper method relative to control. It is filed as functional. The note with it: MCF7, 960 h, time 40 day, read-out: TGI.

Chain of Tyrosine-protein phosphatase non-receptor type 2 (P17706 whole entry): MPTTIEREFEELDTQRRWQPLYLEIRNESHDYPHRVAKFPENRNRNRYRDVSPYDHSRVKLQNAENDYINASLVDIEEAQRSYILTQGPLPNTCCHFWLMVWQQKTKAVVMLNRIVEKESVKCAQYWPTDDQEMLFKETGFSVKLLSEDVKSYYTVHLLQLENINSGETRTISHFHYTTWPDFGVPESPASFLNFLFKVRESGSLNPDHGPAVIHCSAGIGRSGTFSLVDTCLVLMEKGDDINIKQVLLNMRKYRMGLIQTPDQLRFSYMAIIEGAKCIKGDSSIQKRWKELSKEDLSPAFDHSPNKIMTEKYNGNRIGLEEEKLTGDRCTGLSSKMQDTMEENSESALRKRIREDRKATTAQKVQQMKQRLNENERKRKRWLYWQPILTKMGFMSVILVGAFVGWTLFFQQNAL

Usually IC50 stands for the concentration that inhibits the measured activity by half. Turning to `CN1C=C(C(N)=O)[C@@H]2C[C@H](O)[C@@](NC(=O)CS(N)(=O)=O)(C(=O)O)[C@@H]2C1`, the IC50 turned out to be 0.82 µM in data set [1] and 0.84 µM in [2]. In general, MIC refers to the least concentration at which growth counts as inhibited. Regarding `CC1=C(Cn2c3ccc(Br)c(=O)c-3nc3ccccc32)CCC(C)(C)C1`, in data set [3], the MIC was 0.95 µM. In addition, the IC50 in data set [4] is 0.049 µM.

For the molecule `COc1cc2nc(C(=O)NCC(=O)O)sc2c(C/C=C(\C)CC/C=C(\C)CC/C=C(\C)CCC/C(C)=C\CC(=O)O)c1O`, the IC50 in data set [5] stood at 6.8 µM; in [6], 2.5 µM; in [7] it was 1.5 µM. On to `C=C(C)[C@H]1CC=C(C)[C@H]2C[C@H]3Cc4c(C)cc(O)cc4O[C@@]3(C)C[C@H]12`, for which the IC50 in data set [8], in data set [9], in data set [10] and in data set [11] was 20 µM in each case. In the case of `CC1=CC[C@H](C(C)(C)O)[C@H]2C[C@]3(C)Oc4cc(O)cc(C)c4C[C@@H]3C[C@H]12`, the IC50 in data set [8], in [9], in [10] and in data set [11] was 20 µM throughout. As for `CC1(C)Oc2c(nc3c4c2C(=O)CC[C@]4(C)[C@@]2(C)c4[nH]c5ccccc5c4C[C@@H]2C3)[C@H]1O`, the IC50 in [12] and in [13] was 1.7 µM in each case.

Regarding `CC(C)(O)[C@H]1OC2CC[C@@]3(C)[C@@](O)(CC[C@H]4C[C@]5(OCNc6ccccc65)C(=O)[C@@]43C)C2=CC1=O` (some centres undefined), the IC50 in [12] and in data set [13] was 1.7 µM throughout. For the molecule `COC(=O)N[C@H]1[C@@H](C)O[C@@H](O[C@H]2C/C=C(\C)[C@]3(C)CC[C@@H]4[C@@H](O[C@H]5C[C@@H](O[C@H]6C[C@@H](O)[C@@H](O[C@@H]7C[C@@H](O)[C@@H](OC)[C@H](C)O7)[C@H](C)O6)C[C@H](C)O5)[C@@H](C)C[C@H](C)[C@H]4[C@]3(C)C(=O)C3C(=O)OC4(C[C@@H](C)C(CO)=C[C@H]4/C=C/2C)C3=O)C[C@]1(C)N` (some centres undefined), in [14], the IC50 was 7.5 µM. On to `C=C[C@@]1(C)CC[C@H]2C(C=C[C@H]3[C@H](CO)CC(=O)C[C@]23C)C1` (some centres undefined), for which the IC50 in [15] is 9.71 µM. `COC(=O)N[C@H]1[C@@H](C)O[C@@H](O[C@H]2C/C=C(\C)[C@]3(C)CC[C@@H]4[C@@H](O[C@H]5C[C@@H](O[C@H]6C[C@@H](O)[C@@H](O[C@@H]7C[C@@H](O)[C@@H](OC)[C@H](C)O7)[C@H](C)O6)C[C@H](C)O5)[C@@H](C)C[C@H](C)[C@H]4[C@]3(C)C(=O)C3C(=O)OC4(C[C@@H](C)C(CO)=C[C@H]4/C=C/2C)C3=O)C[C@]1(C)[N+](=O)[O-]` (some centres undefined): in data set [16], the IC50 was found to be 0.6 µM. Turning to `COc1cc(OC)c2c(c1)[C@H]([C@H](O)/C=C(\C)CC[C@@H]1C(C)=CC[C@@H]3C(C)(C)CCC[C@@]13C)CCC2=O`, the CC50 in data set [17] amounted to 2 µg/mL (≈ 4.04 µM). Regarding `CC1=CCC[C@@H](C)[C@]1(C)CC[C@@]1(C)c2c(O)cc3c(c2O[C@@H]1C)C(=O)C(C)=C(O)C3=O`, the IC50 in data set [18] is 10 µM.

What is called inhibition is how much of the control response was suppressed. With `CC1(C)CCC[C@]2(C)[C@H]3Cc4c(c(O)c(O)c5nc(C(=O)O)ccc45)O[C@]3(C)CC[C@@H]12`, the inhibition at 72 h in data set [19] was found to be 43%. Besides, in data set [20], the IC50 was 10 µM. In the case of `CC(=O)c1nncc2c1C(=O)C1=C(OC(C)(C)[C@H](Cl)C1=O)[C@]2(O)C[C@H]1C(C)(C)[C@@H](Cl)CC[C@]1(C)O`, the IC50 in data set [21] and in [22] was 40 µM in each case. As to `COc1cccc2c1C(=O)c1c(O)c3c(c(O)c1C2=O)C[C@@](O)(C(=O)CO)C[C@@H]3O[C@H]1C[C@H](N)[C@H](O)[C@H](C)O1` [DOXORUBICIN HYDROCHLORIDE], in data set [23], the inhibition in vivo at 5 mg/kg was found to be 46%.
